{"source": "paper PMC3280214", "about": "“Structure Based Discovery of Small Molecules to Regulate the Activity of Human Insulin Degrading Enzyme” (PLoS ONE, 2012)", "target": "T1, double mutant IDE (Gln363Ala, His332Ala) (Homo sapiens, UniProt P14735, H332A/Q363A)", "T1 construct": "made in house; host or cells: E. coli (BL21 inferred, as for the wild type)", "T1 sequence (P14735 1-1019 H332A/Q363A)": "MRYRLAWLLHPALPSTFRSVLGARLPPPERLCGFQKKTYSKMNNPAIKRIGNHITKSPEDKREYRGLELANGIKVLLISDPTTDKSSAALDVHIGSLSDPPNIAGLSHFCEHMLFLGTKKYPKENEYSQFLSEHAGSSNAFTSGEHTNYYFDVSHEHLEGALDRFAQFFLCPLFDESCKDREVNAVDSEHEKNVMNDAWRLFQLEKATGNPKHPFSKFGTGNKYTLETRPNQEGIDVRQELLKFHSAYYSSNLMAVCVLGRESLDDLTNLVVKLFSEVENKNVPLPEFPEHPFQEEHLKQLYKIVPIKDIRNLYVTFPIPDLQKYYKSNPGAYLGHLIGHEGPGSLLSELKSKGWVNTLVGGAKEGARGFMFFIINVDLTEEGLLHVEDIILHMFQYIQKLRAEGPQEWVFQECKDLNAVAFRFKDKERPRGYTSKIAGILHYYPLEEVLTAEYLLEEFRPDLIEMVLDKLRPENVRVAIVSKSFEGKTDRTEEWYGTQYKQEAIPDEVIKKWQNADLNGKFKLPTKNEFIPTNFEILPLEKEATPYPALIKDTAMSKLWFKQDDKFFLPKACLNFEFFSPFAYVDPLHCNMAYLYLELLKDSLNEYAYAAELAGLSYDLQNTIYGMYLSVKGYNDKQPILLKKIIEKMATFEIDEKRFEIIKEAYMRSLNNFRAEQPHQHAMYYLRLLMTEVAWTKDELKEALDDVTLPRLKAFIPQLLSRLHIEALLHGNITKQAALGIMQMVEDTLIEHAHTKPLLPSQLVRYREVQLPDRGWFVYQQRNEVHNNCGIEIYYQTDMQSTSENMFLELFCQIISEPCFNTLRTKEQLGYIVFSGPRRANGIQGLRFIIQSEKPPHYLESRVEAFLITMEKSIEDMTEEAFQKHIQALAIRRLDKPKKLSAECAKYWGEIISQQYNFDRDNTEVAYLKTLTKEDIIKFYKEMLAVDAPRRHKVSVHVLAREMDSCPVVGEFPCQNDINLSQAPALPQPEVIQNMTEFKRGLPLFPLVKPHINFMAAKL", "assay": "FITC-insulin-mAb degradation by double mutant IDE (Gln363Ala, His332Ala)", "format": "biochemical", "details": "20 µM D10", "from_the_text": "Since D10 has been found as the strongest activator of IDE towards the proteolysis of insulin, we analyzed the binding site of the compound D10 for the further analysis. According to the computational results, D10 binds to Gln363 at the IDE exosite and His332 (Fig. 1D). We carried out site-directed mutagenesis by replacing these amino acids into Ala in order to verify that D10 indeed binds to this region via these amino acids. We first mutated Gln363 to Ala and then expressed and purified mutant protein through nickel resin. The effect of D10 on the proteolytic activity of mutant IDE (Gln363Ala) was measured towards FITC-insulin-mAb degradation. […] The activation was about 49-fold in the presence of D10 with wild type IDE (Fig. 2B). Although mutant IDE activity was less responsive to D10 compound compared to wild type IDE, it appeared as if D10 were interacting with IDE through […] and could enhance the activity of mutant IDE. […]\nThe utility of these novel compounds were tested on degradation of insulin by IDE. […] The proteolysis of insulin by IDE was monitored by measuring the changes in fluorescence, where the reaction was carried out with 100 nM of FITC- insulin-mAb and IDE (80 ng) in 100 µl KH2PO4 buffer at a pH of 7.3. […] The increase in fluorescence was monitored by using Fluoroskan Ascent FL microplate reader (Thermo).", "data": [{"smiles": "Cc1nn(-c2ccccc2)c2nc(-c3cccc([N+](=O)[O-])c3)n3c4ccccc4nc3c2c1=O", "note": "[Compound D10]", "values": [{"measurement": "binding to exosite of double mutant IDE", "result": "could not bind to IDE exosite"}]}]}
